Source: patent publication US11318157B2, “6-6 bicyclic aromatic ring substituted nucleoside analogues for use as PRMT5 inhibitors” (Janssen Pharmaceutica NV, priority 2015, dated 2022)
Read-outs that look alike come from different tables or passages of the source.

How the values were obtained:
[1] = target: T1, PRMT5-MEP50 enzyme (Homo sapiens, UniProt O14744); experiment: In vitro assay 1a: high throughput mass spectrometer assay of SAH formation, 10 nM enzyme, 60 min; format: biochemical; settings: averaged values, PRMT5-MEP50, 10 nM enzyme
T1 construct: One virus expresses full length human PRMT5 with Flag-tag at N-terminus; Flag (N); purchased Charles River (Argenta); host or cells: insect cells (Sf9), baculovirus co-infection
Description: Experimental Procedures In Vitro Assay (Assay 1a and 1b)
PRMT5-MEP50 enzyme was purchased from Charles River (Argenta). The enzyme complex was produced in insect cells (Sf9) infected simultaneously with two baculoviruses. One virus expresses full length human PRMT5 with Flag-tag at N-terminus, the second virus expresses full length MEP50 with His6-TEV cleavage at N-terminus. The protein was affinity purified using anti-Flag (M2) beads eluted with 3×FLAG peptide, followed by His-Select eluted with 0.5M imidazole. Eluted protein was then dialysed against tris-buffered saline (TBS) (pH 8.0) containing 20% glycerol and 3 mM dithiothreitol (DTT).
Full-length untagged human recombinant histone H2A (residues 1-130, Genbank Accession #NM_021052 MW=14.1 kDa) expressed in E. coli was purchased from Reaction Biology Corporation, Cat #HMT-11-146. Reagents used for making reaction buffer or stopping reaction were purchased including Tris base (Sigma Cat #T-1503), NaCl (Sigma Cat #RGF-3270), MgCl2 (Sigma Cat #M0250), DTTI (Invitrogen Cat #15508-013) and Formic Acid (Riedel deHaen, Cat #33015)
High Throughput Mass Spectrometer Assay
PRMT5 catalyzes the sequential methylations of the terminal nitrogen atoms on the guanidine groups of arginine residues within proteins using co-substrate S-adenosyl-L-methionine (AdoMet, SAM), forming mono-methyl (MMA), symmetric-dimethyl arginine (sDMA) and S-adenosyl-L-homocysteine (AdoHcy, SAH). The enzyme activity was determined by following the product SAH formation using high throughput mass spectrometry (Agilent Rapidfire 300 System coupled to a Sciex 4000 series QTrap® triple-quad MS/MS). The reaction buffer was 20 mM Tris-HCl, pH 8.5, 50 mM NaCl, 5 mM MgCl2 and 1 mM DTT. The reaction activity was stopped using 1% formic acid (final concentration).
The IC50 Studies were performed using eleven point dosing series made for each compound by serially diluted 1:2 in dimethyl sulfoxide (DMSO), with point 12 being a DMSO control. Compounds were first spotted to plates, and followed by addition of 2 μM SAM and 0.6 μM H2A (histone H2A) solution mixture. The same volume of enzyme solution was added to initiate the enzymatic reactions. The final concentrations of the reaction are at 1 μM SAM, 0.3 μM H2A and 10 nM enzyme (assay 1a) or 1.25 nM enzyme (assay 1b). The reaction was incubated at 30° C. for 60 minutes (min) when 10 nM enzyme was used and for 120 min when 1.25 nM enzyme was used. Subsequently, the reaction was quenched by addition of formic acid to a final concentration of 1%. The inhibitions of SAH formation in the presence of compounds were calculated as a percentage of the control relative to the uninhibited reaction as a function of inhibitor concentration. The data were fit as follows: Y=Bottom+(Top−Bottom)/(1+10^((log IC50−X)*h))
where IC50 is the inhibitor concentration (same unit as X) at 50% inhibition and h is the Hill slope. Y is percent of inhibition, X is log of compound concentration. Bottom and Top are the plateaus in same units as Y.

[2] = test system: nuclear symmetric Arginine dimethylation in A549 cells; experiment: PD assay (assay 2): inhibition of nuclear symmetric Arginine dimethylation (SYM10 immunohistochemistry), 48 h; format: cell-based; settings: for IC50: Homo sapiens
Procedure, shortened: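 Cells seeded at 400/well overnight, then treated 48 h at 37 °C, final DMSO 0.2%. Fixed and stained with SYM10 antibody plus Alexa 488 secondary, Hoechst and CellMask, then imaged on Opera. Normalized to DMSO (high) and 10 μM reference compound (low); averaged pIC50 reported.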

[3] = target: T1, PRMT5-MEP50 enzyme; experiment: In vitro assay 1b: high throughput mass spectrometer assay of SAH formation, 1.25 nM enzyme, 120 min; format: biochemical
Procedure, shortened: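 Flag-PRMT5/His-MEP50 complex from Sf9 cells, with 1 μM SAM and 0.3 μM full-length histone H2A in pH 8.5 Tris buffer, at 30 °C; 10 nM enzyme for 60 min (1a) or 1.25 nM for 120 min (1b). Formic acid-quenched SAH read by RapidFire MS/MS; 11-point IC50 with Hill fit.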

[4] = read-out: pIC50 Assay 1a (converted)
[5] = A549, averaged values, PD assay, A549 cells, symmetric Arginine dimethylation, read-out: pIC50 Assay 2 (converted)
[6] = averaged values, PRMT5-MEP50, 1.25 nM enzyme, 120 min, read-out: pIC50 Assay 1b (converted)

T1 sequence (O14744 whole entry): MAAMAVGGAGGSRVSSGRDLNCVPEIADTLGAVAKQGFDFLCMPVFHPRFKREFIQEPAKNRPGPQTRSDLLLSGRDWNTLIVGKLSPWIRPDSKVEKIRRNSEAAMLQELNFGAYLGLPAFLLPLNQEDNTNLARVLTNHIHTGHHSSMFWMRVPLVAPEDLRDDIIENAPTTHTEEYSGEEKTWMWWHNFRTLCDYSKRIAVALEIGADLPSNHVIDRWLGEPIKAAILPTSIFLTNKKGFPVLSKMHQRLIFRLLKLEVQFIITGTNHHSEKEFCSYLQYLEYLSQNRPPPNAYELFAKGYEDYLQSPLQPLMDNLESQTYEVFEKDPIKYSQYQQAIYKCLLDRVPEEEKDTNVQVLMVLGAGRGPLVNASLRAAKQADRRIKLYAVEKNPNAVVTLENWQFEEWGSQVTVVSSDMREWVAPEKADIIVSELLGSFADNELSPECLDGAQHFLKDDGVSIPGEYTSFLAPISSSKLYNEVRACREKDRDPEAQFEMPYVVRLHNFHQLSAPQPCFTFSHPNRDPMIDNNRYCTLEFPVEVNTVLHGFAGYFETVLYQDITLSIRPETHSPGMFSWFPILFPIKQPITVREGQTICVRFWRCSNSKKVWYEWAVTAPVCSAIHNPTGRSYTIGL
T1 sequence (Q9BQA1 whole entry partner): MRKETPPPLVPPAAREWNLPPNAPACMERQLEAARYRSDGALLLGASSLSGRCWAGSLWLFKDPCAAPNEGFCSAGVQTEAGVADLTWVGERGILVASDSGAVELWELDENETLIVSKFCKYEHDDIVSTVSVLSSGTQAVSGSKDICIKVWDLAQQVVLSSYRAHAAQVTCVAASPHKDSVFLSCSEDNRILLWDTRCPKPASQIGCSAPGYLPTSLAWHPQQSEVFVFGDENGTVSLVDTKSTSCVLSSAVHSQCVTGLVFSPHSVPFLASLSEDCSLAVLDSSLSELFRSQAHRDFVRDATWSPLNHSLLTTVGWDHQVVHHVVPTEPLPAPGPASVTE

Compound | IC50 [1, 4] [nM] | IC50 [2, 5] [nM] | IC50 [3, 6] [nM] | pIC50 Assay 2 ([2]; averaged values, PD assay, A549 cells, symmetric Arginine dimethylation) | pIC50 Assay 1b ([3]; averaged values, PRMT5-MEP50, 1.25 nM enzyme, 120 min) | IC50 ([2]; A549, read-out: pIC50 Assay 2 (converted)) [nM] | IC50 ([1]; pIC50 Assay 1a) [nM] | IC50 [3] [nM]
Nc1ncnc2c1ccn2[C@@H]1O[C@H](COc2ccc3cncnc3c2)[C@@H](O)[C@H]1O [Compound 16] | 251 | 5010 | 1260 | – | – | – | – | –
Nc1ncnc2c1ccn2[C@@H]1O[C@H](COc2ccc3cccnc3n2)[C@@H](O)[C@H]1O [Compound 17] | 1000 | 7940 | 1580 | – | – | – | – | –
Nc1ncnc2c1ccn2[C@@H]1O[C@H](COc2ccc3ccc(O)nc3c2)[C@@H](O)[C@H]1O [Compound 18] | 79.4 | ~10000 | 316 | – | – | – | – | –
COc1ccc2ccc(OC[C@H]3O[C@@H](n4ccc5c(N)ncnc54)[C@H](O)[C@@H]3O)cc2n1 [Compound 19] | 1580 | > 20000 | 3160 | – | – | – | – | –
CN(C)c1ccc2ccc(OC[C@H]3O[C@@H](n4ccc5c(N)ncnc54)[C@H](O)[C@@H]3O)cc2n1 [Compound 23] | 501 | – | 316 | – | – | 398 | – | –
Nc1ncnc2c1ccn2[C@@H]1O[C@H](COc2ccc3cc(Cl)cnc3c2)[C@@H](O)[C@H]1O [Compound 25] | 12.6 | 126 | 39.8 | – | – | – | – | –
COc1cc2c(Cl)c(C#N)cnc2cc1OC[C@H]1O[C@@H](n2ccc3c(N)ncnc32)[C@H](O)[C@@H]1O [Compound 30] | > 10000 | > 10000 | 39800 | – | – | – | – | –
COc1cc2c(N)c(C#N)cnc2cc1OC[C@H]1O[C@@H](n2ccc3c(N)ncnc32)[C@H](O)[C@@H]1O [Compound 31] | 3160 | > 20000 | 3980 | – | – | – | – | –
Cc1ccnc2cc(OC[C@H]3O[C@@H](n4ccc5c(N)ncnc54)[C@H](O)[C@@H]3O)ccc12 [Compound 32] | 39.8 | 501 | 126 | – | – | – | – | –
Nc1ncnc2c1ccn2[C@@H]1O[C@H](COc2ccc3c(Cl)ccnc3c2)[C@@H](O)[C@H]1O [Compound 33] | 158 | 501 | 794 | – | – | – | – | –
Nc1ncnc2c1ccn2[C@@H]1O[C@H](COc2cc(C(F)(F)F)c3cccnc3c2)[C@@H](O)[C@H]1O [Compound 37] | 1000 | 5010 | 631 | – | – | – | – | –
Nc1ncnc2c1ccn2[C@@H]1O[C@H](COc2cc3ncccc3cc2C(F)(F)F)[C@@H](O)[C@H]1O [Compound 38] | 200 | 794 | 398 | – | – | – | – | –
Nc1ncnc2c1c(F)cn2[C@@H]1O[C@H](COc2ccc3cccnc3c2)[C@@H](O)[C@H]1O [Compound 44] | 63.1 | 251 | 126 | – | – | – | – | –
Nc1ncnc2c1ccn2[C@@H]1O[C@H](CNc2ccc3cc(Cl)cnc3c2)[C@@H](O)[C@H]1O [Compound 50] | 10 | 25.1 | 7.94 | – | – | – | – | –
Nc1ncnc2c1ccn2[C@@H]1O[C@H](CNc2ccc3cc(Br)cnc3c2)[C@@H](O)[C@H]1O [Compound 51] | 10 | ~15.5 | 15.8 | – | – | – | – | –
CN(C[C@H]1O[C@@H](n2ccc3c(N)ncnc32)[C@H](O)[C@@H]1O)c1ccc2cc(Br)cnc2c1 [Compound 52] | 63.1 | 398 | 158 | – | – | – | – | –
Cc1nc(N)c2ccn([C@@H]3O[C@H](CNc4ccc5cc(Br)cnc5c4)[C@@H](O)[C@H]3O)c2n1 [Compound 53] | 39.8 | 50.1 | 50.1 | – | – | – | – | –
Nc1ncnc2c1ccn2[C@@H]1C[C@H](CNc2ccc3cc(Br)cnc3c2)[C@@H](O)[C@H]1O [Compound 54] | 15.8 | 31.6 | 15.8 | – | – | – | – | –
Nc1ncnc2c1ccn2[C@@H]1C[C@H](CNc2ccc3cc(Br)cnc3c2)[C@@H](O)[C@H]1O [Compound 54a] | 7.94 | – | – | 7.4 | 7.8 | – | – | –
Nc1ncnc2c1ccn2[C@@H]1C[C@H](/C=C/c2ccc3cccnc3c2)[C@@H](O)[C@H]1O [Compound 55] | – | ~51.3 | – | – | – | – | 7.94 | 31.6

Now from value to molecule, other results behind:

IC50 [1, 4] [nM] | IC50 [2, 5] [nM] | IC50 [3, 6] [nM] | pIC50 Assay 2 ([2]; averaged values, PD assay, A549 cells, symmetric Arginine dimethylation) | pIC50 Assay 1b ([3]; averaged values, PRMT5-MEP50, 1.25 nM enzyme, 120 min) | Compound | IC50 ([2]; A549, read-out: pIC50 Assay 2 (converted)) [nM] | IC50 ([1]; pIC50 Assay 1a) [nM] | IC50 [3] [nM]
1260 | 5010 | 1580 | – | – | Cc1ccc2ccc(OC[C@H]3O[C@@H](n4ccc5c(N)ncnc54)[C@H](O)[C@@H]3O)cc2n1 [Compound 21] | – | – | –
6310 | ~17800 | 25100 | – | – | Nc1ncnc2c1ccn2[C@@H]1O[C@H](COc2ccc3ccc(C(F)(F)F)nc3c2)[C@@H](O)[C@H]1O [Compound 22] | – | – | –
39.8 | 794 | 126 | – | – | Nc1ncnc2c1ccn2[C@@H]1O[C@H](COc2ccc3cc(F)cnc3c2)[C@@H](O)[C@H]1O [Compound 24] | – | – | –
63.1 | ~251 | 200 | – | – | COc1cnc2cc(OC[C@H]3O[C@@H](n4ccc5c(N)ncnc54)[C@H](O)[C@@H]3O)ccc2c1 [Compound 26] | – | – | –
398 | ~1150 | 794 | – | – | Nc1ncnc2c1ccn2[C@@H]1O[C@H](COc2ccc3cc(C(F)(F)F)cnc3c2)[C@@H](O)[C@H]1O [Compound 27] | – | – | –
> 10000 | > 20000 | 7940 | – | – | N#Cc1cnc2cc(OC[C@H]3O[C@@H](n4ccc5c(N)ncnc54)[C@H](O)[C@@H]3O)ccc2c1Cl [Compound 28] | – | – | –
501 | 15800 | 1260 | – | – | N#Cc1cnc2cc(OC[C@H]3O[C@@H](n4ccc5c(N)ncnc54)[C@H](O)[C@@H]3O)ccc2c1N [Compound 29] | – | – | –
7940 | > 20000 | > 100000 | – | – | O[C@@H]1[C@H](O)[C@@H](COc2ccc3c(Cl)ccnc3c2)O[C@H]1n1ccc2c(Cl)ncnc21 [Compound 34] | – | – | –
398 | 398 | 794 | – | – | Nc1ncnc2c1ccn2[C@@H]1O[C@H](COc2ccc3c(Cl)c(Cl)cnc3c2)[C@@H](O)[C@H]1O [Compound 35] | – | – | –
2510 | ~12000 | 1580 | – | – | Nc1ncnc2c1ccn2[C@@H]1O[C@H](COc2ccc3cccnc3c2I)[C@@H](O)[C@H]1O [Compound 40] | – | – | –
6310 | > 10000 | 10000 | – | – | Nc1ncnc2c1ccn2[C@@H]1O[C@H](COc2ccc3cccnc3c2Cl)[C@@H](O)[C@H]1O [Compound 41] | – | – | –
50.1 | 316 | 126 | – | – | Nc1nc(Cl)nc2c1ccn2[C@@H]1O[C@H](COc2ccc3cc(Br)cnc3c2)[C@@H](O)[C@H]1O [Compound 42] | – | – | –
79.4 | 316 | 200 | – | – | Cc1nc(N)c2ccn([C@@H]3O[C@H](COc4ccc5cc(Br)cnc5c4)[C@@H](O)[C@H]3O)c2n1 [Compound 43] | – | – | –
25.1 | 50.1 | 63.1 | – | – | Nc1ncnc2c1ccn2[C@@H]1C[C@H](COc2ccc3cc(Br)cnc3c2)[C@@H](O)[C@H]1O [Compound 47] | – | – | –
3.98 | 10 | 10 | – | – | Nc1ncnc2c1ccn2[C@@H]1O[C@H](CNc2ccc3cccnc3c2)[C@@H](O)[C@H]1O [Compound 49] | – | – | –
